Assay results: patent US5527820A, “Antibiotics having immunosuppressive activity, delaminomycins and processes for the production of the same” (priority 1992, dated 1996)
Values after ≈ are worked out from the molar mass of the structure shown.

What was measured:
[1] = system: Trichophyton mentagrophytes F-15 (833); experiment: MIC, agar plate dilution method; format: cell-based; details: 27° C., 42 hours, nutrient agar containing glucose
[2] = system: Candida albicans 3147; experiment: MIC, agar plate dilution method; format: cell-based; details: 27° C., 42 hours, nutrient agar containing glucose
[3] = system: Candida Yu-1200; experiment: MIC, agar plate dilution method; format: cell-based; details: YU1200, 27° C., 42 hours, nutrient agar containing glucose
[4] = system: nylon wool-passed cells of spleen cells (responder cell; T cells); experiment: Inhibitory activity to the mixed lymphocyte culture reaction; format: cell-based, rat (Fischer F344 responder; WKY stimulator)
[5] = in vivo
[6] = system: Piricularia oryzae; experiment: microbe, parasite or virus in culture; format: cell-based; details: 42 h
[7] = system: delayed-type hypersensitivity (DTH); experiment: Suppressive effect on delayed-type hypersensitivity (DTH) in mouse, oral; format: in vivo, mouse (CDF1); details: oral once a day, 0~4th day
Method: (§1) CDF1 mice were immunized by intravenously injecting sheep red blood cells (10^5 cells/mouse). On the 4th day after the immunization, sheep red blood cells (10^8 cells/mouse) were subcutaneously injected into the footpad of mice for the elicitation to cause a delayed-type hypersensitivity. Test compound was orally administered to the mice once a day from the 0 th day to the 4 th day after the immunization. On the 5th day after the elicitation, the thickness of the mouse footpad was measured to estimate the suppressive effect of the test compound on DTH. The suppressive effect of the test compound was evaluated in terms of the inhibition rate (%) as calculated according to the following equation:
(§2) Inhibition rate (%)=100-(T/C×100)
wherein T denotes the thickness of the footpad when the test compound was administered, but C denotes the thickness of the footpad when no test compounnd was administered.

[8] = system: Candida pseudotropicalis F-2; experiment: MIC, agar plate dilution method; format: cell-based; details: Kluyveromyces marxianus, F2; 27° C., 42 hours, nutrient agar containing glucose
[9] = system: Mouse melanoma B-16; experiment: Inhibitory activity on proliferation of cancer cells; format: cell-based; details: B16
[10] = system: Trichophyton asteroides 429; experiment: MIC, agar plate dilution method; format: cell-based; details: 27° C., 42 hours, nutrient agar containing glucose
[11] = system: spleen cells (T cells activated by Concanavalin A); experiment: Inhibitory activity against blastogenesis and proliferation of spleen cells caused by mitogen (Con A); format: cell-based, mouse (CDF1)
[12] = system: Cochliobolus miyabeanus; experiment: MIC, agar plate dilution method; format: cell-based; details: Bipolaris oryzae; 27° C., 42 hours, nutrient agar containing glucose
Method: (§3) Delaminomycins A, B, C, A2, B2 and C2 according to this invention further have an antibacterial activity against a variety of bacteria. The minimum growth inhibitory concentrations (MIC) (μg/ml) of the novel antibiotics of this invention on various bacteria and fungi as measured by the agar plate dilution method are shown in Table 5a, Table 5b, Table 5c and Table 5d below.
(§4) Evaluated after culturing at 27° C. for 42 hours in nutrient agar
(§5) medium containing glucose.

[13] = system: Xanthomonas citri; experiment: MIC, agar plate dilution method; format: cell-based; details: 27° C., 42 hours, nutrient agar containing glucose
Method: as §3, §4, §5

[14] = system: Human Lymphoma Jurkat; experiment: Inhibitory activity on proliferation of cancer cells; format: cell-based
[15] = system: Aspergillus niger F-16; experiment: MIC, agar plate dilution method; format: cell-based; details: F16, 27° C., 42 hours, nutrient agar containing glucose
[16] = system: Mouse leukemia EL-4; experiment: Inhibitory activity on proliferation of cancer cells; format: cell-based; details: EL4
[17] = system: Cryptococcus neoformans F-10; experiment: MIC, agar plate dilution method; format: cell-based; details: F10, 27° C., 42 hours, nutrient agar containing glucose
[18] = system: Mouse leukemia L-1210; experiment: Inhibitory activity on proliferation of cancer cells; format: cell-based; details: L1210
[19] = system: delayed-type hypersensitivity (DTH); experiment: Suppressive effect on delayed-type hypersensitivity (DTH) in mouse, intraperitoneal; format: in vivo, mouse (CDF1); details: intraperitoneal once a day, 0-4th day
From the text: Suppressive effect of delaminomycins on delayed-type hypersensitivity (DTH) in mouse
as §1, with “hypersensitivity (DTH).” for “hypersensitivity.”, “intraperitoneally” for “orally”, “0th” for “0 th”, “4th” for “the 4 th”, “elicitation” for “elicitation,”, “the DTH response.” for “DTH.”
as §2
wherein T denotes the thickness of the footpad when administering the test compound, but C denotes the thickness of the footpad when administering no test compound.

[20] = system: Pellicularia sasakii; experiment: MIC, agar plate dilution method; format: cell-based; details: 27° C., 42 hours, nutrient agar containing glucose
[21] = system: Mouse leukemia P388D1; experiment: Inhibitory activity on proliferation of cancer cells; format: cell-based
[22] = system: Saccharomyces cerevisiae F-7; experiment: MIC, agar plate dilution method; format: cell-based; details: F7, 27° C., 42 hours, nutrient agar containing glucose
[23] = system: Candida krusei F-5; experiment: MIC, agar plate dilution method; format: cell-based; details: Pichia kudriavzevii, F5; 27° C., 42 hours, nutrient agar containing glucose
[24] = system: Candida tropicalis F-1; experiment: MIC, agar plate dilution method; format: cell-based; details: F1, 27° C., 42 hours, nutrient agar containing glucose
[25] = system: Gram-positive bacteria; experiment: Antibacterial activity to Gram-positive bacteria; format: cell-based; details: result in words
From the text: as §3

CCC(O)C(C)/C=C/C=C/C1CC2C=CC3CC(C)CC(C)C3C2(C)C(=O)C12C(=O)NC(O)C2=O (stereo not drawn) [Delaminomycin A2]
MIC [1]: > 100 µg/mL | MIC [2]: > 100 µg/mL | MIC [3]: > 100 µg/mL | inhibition at 0.1 µg/mL ([4]; Rattus norvegicus, T-cell, 0.10 μg/ml test compound, read-out: Inhibition rate): 16% | inhibition at 0.39 µg/mL ([4]; Rattus norvegicus, T-cell, 0.39 μg/ml test compound, read-out: Inhibition rate): 5% | inhibition at 1.56 µg/mL ([4]; Rattus norvegicus, T-cell, 1.56 μg/ml test compound, read-out: Inhibition rate): 0% | inhibition at 25 µg/mL ([4]; Rattus norvegicus, T-cell, 25 μg/ml test compound, read-out: Inhibition rate): 94% | inhibition at 100 µg/mL ([4]; Rattus norvegicus, T-cell, 100 μg/ml test compound, read-out: Inhibition rate): 56% | IC50 ([4]; Rattus norvegicus, T-cell, 120 hours, 3H-thymidine incorporation, read-out: IC50 (inhibition of mixed lymphocyte culture reaction)): 13.9 µg/mL (≈ 28.7 µM) | activity to inhibit the proliferation of the T cells (responder cell) in mixed lymphocyte culture reaction ([4]; in vitro, result in words): have an activity to inhibit the reaction of proliferation of the T cells | absorption into the digestive tracts / oral absorption [5]: hardly absorbed into the digestive tracts | MIC [6]: > 100 µg/mL | Inhibition rate (DTH footpad thickness) ([7]; 0.5 mg/mouse): 7.7% | Inhibition rate (DTH footpad thickness) ([7]; 2.0 mg/mouse): 23.4% | Inhibition rate (DTH footpad thickness) ([7]; 8.0 mg/mouse): 36.1% | MIC [8]: > 100 µg/mL | IC50 [9]: 8.3 µg/mL (≈ 17.2 µM) | MIC [10]: > 100 µg/mL | IC50 ([11]; Mus musculus, T-cell, read-out: IC50 (inhibition of blastogenesis and proliferation of spleen lymphocyte caused by Con A)): 0.78 µg/mL (≈ 1.61 µM) | inhibition at 0.2 µg/mL ([11]; Mus musculus, T-cell, 0.20 μg/ml test compound, read-out: Inhibition rate): 1.5% | inhibition at 0.78 µg/mL ([11]; Mus musculus, T-cell, 0.78 μg/ml test compound, read-out: Inhibition rate): 50.5% | inhibition at 3.1 µg/mL ([11]; Mus musculus, T-cell, 3.1 μg/ml test compound, read-out: Inhibition rate): 76.3% | inhibition at 12.5 µg/mL ([11]; Mus musculus, T-cell, 12.5 μg/ml test compound, read-out: Inhibition rate): 95.1% | inhibition at 50 µg/mL ([11]; Mus musculus, T-cell, 50 μg/ml test compound, read-out: Inhibition rate): 96.5% | activity inhibitory to the reaction of proliferation of mouse spleen cells activated with Concanavalin A ([11]; in vitro, result in words): exhibit an activity inhibitory to the reaction of proliferation of mouse spleen cells | MIC [12]: > 100 µg/mL | MIC [13]: > 100 µg/mL | IC50 [14]: 5.9 µg/mL (≈ 12.2 µM) | MIC [15]: > 100 µg/mL | IC50 [16]: 4.1 µg/mL (≈ 8.48 µM) | MIC [17]: > 100 µg/mL | IC50 [18]: 3.7 µg/mL (≈ 7.65 µM) | Inhibition rate (DTH footpad thickness) ([19]; 15.6 μg/mouse): 1.9% | Inhibition rate (DTH footpad thickness) ([19]; 62.5 μg/mouse): 3.5% | Inhibition rate (DTH footpad thickness) ([19]; 250 μg/mouse): 26.6% | Inhibition rate (DTH footpad thickness) ([19]; 1000 μg/mouse): 99.3% | MIC [20]: > 50 µg/mL | IC50 [21]: 10 µg/mL (≈ 20.7 µM) | MIC [22]: > 100 µg/mL | MIC [23]: > 100 µg/mL | MIC [24]: > 100 µg/mL | antibacterial activity to Gram-positive bacteria [25]: antibacterial activity to Gram-positive bacteria
